# Assay results reported in patent publication US9169270B2, “1-phenyl-substituted heterocyclyl derivatives and their use as prostaglandin D2 receptor modulators” (Actelion Pharmaceuticals Ltd., priority 2012, dated 2015).
# Target: hCRTH2 receptor (Homo sapiens (Human), UniProt Q9Y5Y4)
# Assay: hCRTH2 receptor membranes radioligand (3H-PGD2) displacement assay
# Conditions: hCRTH2 membrane fragments, Binding-Buffer with 0.1% BSA
# Procedure: Biological Assays: Preparation of hCRTH2 Receptor Membranes and Radioligand Displacement Assay:
# First, recombinant HEK293-hCRTH2 cells were detached from culture plates into 5 ml buffer A/plate (Buffer A: 5 mM Tris, 1 mM MgCl2-6H2O pH=7.4) using a rubber policeman. Cells were then transferred into centrifugation tubes and centrifuged for 5 min at 400 g. The cell pellet was resuspended in the same buffer and tubes were frozen at −80° C. Cells were thawed and membrane fragments were generated by homogenization using a polytron homogenizer (30 seconds). The membrane fragments were then centrifuged at 3000 g for 20 minutes and resuspended in buffer C (Buffer C: 75 mM Tris, 25 mM MgCl2, 250 mM Saccharose pH 7.4). Aliquots of membrane fragments were stored at −20° C.
# Binding assay was performed in a final assay volume of 250 μl. First, 25 μl of test compound, previously diluted in Binding-Buffer (Binding-Buffer: 50 mM Tris-Base, 100 mM NaCl, 1 mM EDTA, 0.1% BSA (protease free), 0.01% NaN3, 10 mM MnCl2, pH 7.0) was placed into each well. […] Binding assay was started by addition of 100 μl CRTH2 membrane fragments, reaching a final concentration of 20 μg/well. For non-specific binding, PGD2 was added to the reaction mixture to […] final concentration. This assay mix was incubated for 90 minutes at room temperature and then filtered through a GF/C filter 96-well plate which was pre-soaked for 3 hours in 0.5% polyethyleneimine (PEI). The filter-wells were washed three times with ice cold Binding-Buffer. Then, 40 μl of Microscint-40 (Packard) was added to each well and the retained radioactivity quantified in a Topcount (Packard).
# Sequence of hCRTH2 receptor (Q9Y5Y4 whole entry): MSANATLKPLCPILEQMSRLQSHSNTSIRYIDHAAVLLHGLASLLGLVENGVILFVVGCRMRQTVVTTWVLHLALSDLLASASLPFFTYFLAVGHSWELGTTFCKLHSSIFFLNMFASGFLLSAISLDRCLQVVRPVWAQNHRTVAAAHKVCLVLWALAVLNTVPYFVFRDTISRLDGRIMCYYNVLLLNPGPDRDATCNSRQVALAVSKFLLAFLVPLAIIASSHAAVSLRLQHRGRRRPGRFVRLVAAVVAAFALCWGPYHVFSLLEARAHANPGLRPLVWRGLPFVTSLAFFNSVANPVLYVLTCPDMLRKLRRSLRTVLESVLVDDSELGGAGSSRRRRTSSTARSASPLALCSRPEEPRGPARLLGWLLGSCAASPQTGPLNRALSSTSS
row,IC50,SMILES
1,130 nM,"O=C(O)COc1ccc(Cl)cc1C1c2scnc2CCN1C(=O)CC1(c2ccccc2)CC1 (racemic) [Example 37, (±)-(4-Chloro-2-{5-[2-(1-phenyl-cyclopropyl)-acetyl]-4,5,6,7-tetrahydro-thiazolo[5,4-c]pyridin-4-yl}-phenoxy)-acetic acid]"
2,12.2 nM,"C[C@H](CC(=O)N1CCc2ncsc2C1c1cc(Cl)ccc1OCC(=O)O)c1ccccc1 (mixture of isomers) [Example 38, (±)-{4-Chloro-2-[5-((R)-3-phenyl-butyryl)-4,5,6,7-tetrahydro-thiazolo[5,4-c]pyridin-4-yl]-phenoxy}-acetic acid]"
3,99.1 nM,"O=C(O)COc1ccc(Cl)cc1[C@@H]1c2scnc2CCN1C(=O)C[C@H]1OCCc2ccccc21 (racemic) [Example 39, (±)-{4-Chloro-2-[5-((±)-2-isochroman-1-yl-acetyl)-4,5,6,7-tetrahydro-thiazolo[5,4-c]pyridin-4-yl]-phenoxy}-acetic acid]"
4,950 nM,"CC(C)(C)CC(=O)N1CCc2ncsc2C1c1cc(Cl)ccc1OCC(=O)O (racemic) [Example 40, (±)-{4-Chloro-2-[5-(3,3-dimethyl-butyryl)-4,5,6,7-tetrahydro-thiazolo[5,4-c]pyridin-4-yl]-phenoxy}-acetic acid]"
5,83.9 nM,"O=C(O)COc1ccc(Cl)cc1C1c2scnc2CCN1C(=O)CC1CC1 (racemic) [Example 41, (±)-{4-Chloro-2-[5-(2-cyclopropyl-acetyl)-4,5,6,7-tetrahydro-thiazolo[5,4-c]pyridin-4-yl]-phenoxy}-acetic acid]"
6,48.1 nM,"O=C(O)COc1ccc(Cl)cc1C1c2scnc2CCN1C(=O)Cc1n[nH]c2ccccc12 (racemic) [Example 44, (±)-{4-Chloro-2-[5-(2-1H-indazol-3-yl-acetyl)-4,5,6,7-tetrahydro-thiazolo[5,4-c]pyridin-4-yl]-phenoxy}-acetic acid]"
7,59.6 nM,"O=C(O)COc1ccc(Cl)cc1C1c2scnc2CCN1C(=O)/C=C/c1ccccc1 (racemic) [Example 45, (±)-(4-Chloro-2-{5-[(E)-(3-phenyl-acryloyl)]-4,5,6,7-tetrahydro-thiazolo[5,4-c]pyridin-4-yl}-phenoxy)-acetic acid]"
8,6.2 nM,"O=C(O)COc1ccc(Cl)cc1C1c2scnc2CCN1C(=O)CC1Cc2ccccc2C1 (racemic) [Example 46, (±)-{4-Chloro-2-[5-(2-indan-2-yl-acetyl)-4,5,6,7-tetrahydro-thiazolo[5,4-c]pyridin-4-yl]-phenoxy}-acetic acid]"
9,37.1 nM,"CC1(C)CC1C(=O)N1CCc2ncsc2C1c1cc(Cl)ccc1OCC(=O)O (racemic) [Example 47, (±)-{4-Chloro-2-[(±)-5-(2,2-dimethyl-cyclopropanecarbonyl)-4,5,6,7-tetrahydro-thiazolo[5,4-c]pyridin-4-yl]-phenoxy}-acetic acid]"
10,73 nM,"O=C(O)COc1ccc(Cl)cc1C1c2scnc2CCN1C(=O)CC1CCCCC1 (racemic) [Example 48, (±)-{4-Chloro-2-[5-(2-cyclohexyl-acetyl)-4,5,6,7-tetrahydro-thiazolo[5,4-c]pyridin-4-yl]-phenoxy}-acetic acid]"
11,15.8 nM,"O=C(O)COc1ccc(Cl)cc1C1c2scnc2CCN1C(=O)Cc1ccc2ccccc2c1 (racemic) [Example 49, (±)-{4-Chloro-2-[5-(2-naphthalen-2-yl-acetyl)-4,5,6,7-tetrahydro-thiazolo[5,4-c]pyridin-4-yl]-phenoxy}-acetic acid]"
12,12.6 nM,"O=C(O)COc1ccc(Cl)cc1C1c2scnc2CCN1C(=O)Cc1cccc2ccccc12 (racemic) [Example 50, (±)-{4-Chloro-2-[5-(2-naphthalen-1-yl-acetyl)-4,5,6,7-tetrahydro-thiazolo[5,4-c]pyridin-4-yl]-phenoxy}-acetic acid]"
13,9.7 nM,"O=C(O)COc1ccc(Cl)cc1C1c2scnc2CCN1C(=O)CCCc1ccc(F)cc1 (racemic) [Example 51, (±)-(4-Chloro-2-{5-[4-(4-fluoro-phenyl)-butyryl]-4,5,6,7-tetrahydro-thiazolo[5,4-c]pyridin-4-yl}-phenoxy)-acetic acid]"
14,17.7 nM,"O=C(O)COc1ccc(Cl)cc1C1c2scnc2CCN1C(=O)CCN1CCc2ccccc21 (racemic) [Example 52, (±)-{4-Chloro-2-[5-(3-2,3-dihydro-indol-1-yl-propionyl)-4,5,6,7-tetrahydro-thiazolo[5,4-c]pyridin-4-yl]-phenoxy}-acetic acid]"
15,41.2 nM,"COc1ccc(/C=C/C(=O)N2CCc3ncsc3C2c2cc(Cl)ccc2OCC(=O)O)cc1 (racemic) [Example 54, (±)-(4-Chloro-2-{5-[(E)-3-(4-methoxy-phenyl)-acryloyl]-4,5,6,7-tetrahydro-thiazolo[5,4-c]pyridin-4-yl}-phenoxy)-acetic acid]"
16,71.9 nM,"Cc1ccc(/C=C/C(=O)N2CCc3ncsc3C2c2cc(Cl)ccc2OCC(=O)O)cc1 (racemic) [Example 56, (±)-{4-Chloro-2-[5-((E)-3-p-tolyl-acryloyl)-4,5,6,7-tetrahydro-thiazolo[5,4-c]pyridin-4-yl]-phenoxy}-acetic acid]"
17,3.5 nM,"O=C(O)COc1ccc(Cl)cc1C1c2scnc2CCN1C(=O)/C=C/c1ccc(F)cc1F (racemic) [Example 57, (±)-(4-Chloro-2-{5-[(E)-3-(2,4-difluoro-phenyl)-acryloyl]-4,5,6,7-tetrahydro-thiazolo[5,4-c]pyridin-4-yl}-phenoxy)-acetic acid]"
18,2.8 nM,"CCC(C)COC(=O)N1CCc2ncsc2[C@H]1c1cc(Cl)ccc1OCC(=O)O (mixture of isomers) [Example 70, (R)-4-(2-Carboxymethoxy-5-chloro-phenyl)-6,7-dihydro-4H-thiazolo[5,4-c]pyridine-5-carboxylic acid (±)-2-methyl-butyl ester]"
19,2.3 nM,"O=C(O)COc1ccc(Cl)cc1C1c2scnc2CCN1C(=O)OCCc1cccc(F)c1 (racemic) [Example 77, (±)-4-(2-Carboxymethoxy-5-chloro-phenyl)-6,7-dihydro-4H-thiazolo[5,4-c]pyridine-5-carboxylic acid 2-(3-fluoro-phenyl)-ethyl ester]"
20,3 nM,"O=C(O)COc1ccc(Cl)cc1C1c2scnc2CCN1C(=O)OCc1ccccc1F (racemic) [Example 79, (±)-4-(2-Carboxymethoxy-5-chloro-phenyl)-6,7-dihydro-4H-thiazolo[5,4-c]pyridine-5-carboxylic acid 2-fluoro-benzyl ester]"
21,1.9 nM,"O=C(O)COc1ccc(Cl)cc1C1c2scnc2CCN1C(=O)OCc1ccc(F)cc1 (racemic) [Example 80, (±)-4-(2-Carboxymethoxy-5-chloro-phenyl)-6,7-dihydro-4H-thiazolo[5,4-c]pyridine-5-carboxylic acid 4-fluoro-benzyl ester]"
22,1.2 nM,"O=C(O)COc1ccc(Cl)cc1C1c2scnc2CCN1C(=O)OCc1cccc(Cl)c1Cl (racemic) [Example 81, (±)-4-(2-Carboxymethoxy-5-chloro-phenyl)-6,7-dihydro-4H-thiazolo[5,4-c]pyridine-5-carboxylic acid 2,3-dichloro-benzyl ester]"
23,8.5 nM,"O=C(O)COc1ccc(Cl)cc1C1c2scnc2CCN1C(=O)OCc1cccc(F)c1F (racemic) [Example 82, (±)-4-(2-Carboxymethoxy-5-chloro-phenyl)-6,7-dihydro-4H-thiazolo[5,4-c]pyridine-5-carboxylic acid 2,3-difluoro-benzyl ester]"
24,3.5 nM,"O=C(O)COc1ccc(Cl)cc1C1c2scnc2CCN1C(=O)OCc1ccccc1Cl (racemic) [Example 84, (±)-4-(2-Carboxymethoxy-5-chloro-phenyl)-6,7-dihydro-4H-thiazolo[5,4-c]pyridine-5-carboxylic acid 2-chloro-benzyl ester]"
25,1.7 nM,"O=C(O)COc1ccc(Cl)cc1C1c2scnc2CCN1C(=O)OCc1ccc(Cl)cc1 (racemic) [Example 86, (±)-4-(2-Carboxymethoxy-5-chloro-phenyl)-6,7-dihydro-4H-thiazolo[5,4-c]pyridine-5-carboxylic acid 4-chloro-benzyl ester]"
26,6.4 nM,"O=C(O)COc1ccc(Cl)cc1C1c2scnc2CCN1C(=O)OCCc1ccccc1 (racemic) [Example 88, (±)-4-(2-Carboxymethoxy-5-chloro-phenyl)-6,7-dihydro-4H-thiazolo[5,4-c]pyridine-5-carboxylic acid phenethyl ester]"
27,1.6 nM,"O=C(O)COc1ccc(Cl)cc1C1c2scnc2CCN1C(=O)OCn1ncc2ccccc21 (racemic) [Example 90, (±)-4-(2-Carboxymethoxy-5-chloro-phenyl)-6,7-dihydro-4H-thiazolo[5,4-c]pyridine-5-carboxylic acid indazol-1-ylmethyl ester]"
28,3.7 nM,"CCn1nc(C)cc1CCOC(=O)N1CCc2ncsc2C1c1cc(Cl)ccc1OCC(=O)O (racemic) [Example 91, (±)-4-(2-Carboxymethoxy-5-chloro-phenyl)-6,7-dihydro-4H-thiazolo[5,4-c]pyridine-5-carboxylic acid 2-(2-ethyl-5-methyl-2H-pyrazol-3-yl)-ethyl ester]"
